What was measured:
[1] = Pharmacokinetics in beagle dogs; assay type: in vivo
From the text: Experimental embodiment 7: Evaluation on the pharmacokinetic of compounds in beagle dogs
Male beagle dogs were selected as the tested animals in this study, and the drug concentration in plasma of beagle dogs at different time points via intravenous injection or oral perfusion gastric administration of the test compounds was quantitatively measured using LC/MS/MS method to evaluate the pharmacokinetic characteristics of the test compounds in beagle dogs.
Beagle dog (male, 6-15 kg, more than 6 months old, Beijing Marshall Biotechnology Co., Ltd.).
A clear solution of the test compound was injected intravenously into beagle dogs (overnight fasting), or administrated orally to beagle dogs by gavage (overnight fasting). For intravenous administration, 500 μL of blood was collected from peripheral vessels at 0 hour (pre-dosing) and at 0.0833, 0.25, 0.5, 1, 2, 4, 6, 8 and 24 hours after dosing, which was then placed in an anticoagulation tube supplemented with EDTA-K2 (Suzuki Healthcare Medical Co., Ltd.). For oral gastric administration, 500 μL of blood was collected from peripheral vessels at 0 hour (pre-dosing) and at 0.25, 0.5, 1, 2, 4, 6, 8 and 24 hours after dosing, which was then placed in an anticoagulation tube supplemented with EDTA-K2. The mixture in the anticoagulation tube was vortexed to mix thoroughly, and then centrifuged at 13000 rpm for 10 minutes to collect the plasma. Plasma drug concentration was measured by LC/MS/MS method, and related pharmacokinetic parameters were calculated using WinNonlin™ Version 6.3 (Pharsight, Paul View, Calif.) pharmacokinetics software in non-room model linear logarithmic trapezoids method.

human ETA receptor = target: T1, human ETA receptor (Homo sapiens, UniProt P25101); test: In vitro antagonistic effect against human ETA receptor, Ca2+ signal in SK-N-MC cells; assay type: cell-based; conditions: for IC50: SK-N-MC cells, response to 1 nM endothelin-1; for ETA/ETB selectivity: ratio of ETB IC50 to ETA IC50
T1 construct: endogenously expressed human ETA receptors in SK-N-MC cells; host or cells: SK-N-MC cells
T1 sequence (P25101 21-427): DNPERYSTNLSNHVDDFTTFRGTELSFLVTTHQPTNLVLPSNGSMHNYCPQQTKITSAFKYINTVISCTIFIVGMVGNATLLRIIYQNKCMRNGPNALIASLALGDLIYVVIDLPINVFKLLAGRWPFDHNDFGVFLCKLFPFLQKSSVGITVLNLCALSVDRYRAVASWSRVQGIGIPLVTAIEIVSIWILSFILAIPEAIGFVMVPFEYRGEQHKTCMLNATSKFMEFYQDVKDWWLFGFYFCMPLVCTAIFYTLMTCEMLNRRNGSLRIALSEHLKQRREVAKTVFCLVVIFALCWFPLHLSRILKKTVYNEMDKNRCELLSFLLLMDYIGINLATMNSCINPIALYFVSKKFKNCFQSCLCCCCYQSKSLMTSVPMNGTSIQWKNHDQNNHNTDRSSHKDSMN
Description: Experimental Embodiment 1: In Vitro Test of Antagonistic Effect Against Human ETA Receptor
Antagonistic activity of the compounds against endogenously expressed human ETA receptors in SK-N-MC cells was evaluated by measuring the effect of compounds on the changes in cytoplasmic Ca^2+ ion signal induced by human ETA receptor agonists using fluorescence detection methods. The functional activity of the ETA receptor antagonistic effect was tested in Eurofins-Cerep SA according to current standard procedures.
1. Cells were suspended in Dulbecco's modified Eagle medium solution (DMEM, Invitrogen) supplemented with 1% FCSd, then distributed in 384-well plate (100 μL/well) at a density of 5×10^4 cells/well;
2. Probenecid in Hank's balanced salt solution (HBSS, Invitrogen) supplemented with 20 mM 4-(2-hydroxyethyl)piperazine-1-ethanesulfonic acid (Hepes, Invitrogen) (pH 7.4) was mixed with fluorescent probe (Fluo4 NW, Invitrogen), the mixture was added to each wells, then balanced with cells at 37° C. for 60 minutes, and then balanced with cells at 22° C. for 15 minutes;
3. The test plate was placed in a microplate reader (CellLux, PerkinElmer), a DMSO solution or HBSS buffer with an appropriate concentration of the test compound and the positive control was added, and 1 nM endothelin-1 or HBSS buffer (base control) was added after 5 minutes, and then the change in fluorescence intensity proportional to the concentration of Ca^2+ ions of free […] was measured;
5. Standard positive control was BQ-123, several concentrations were tested in each experiments. The data was analyzed using Prism to generate a concentration-response curve, and IC50 values of the compounds were calculated.

[2] = Pharmacokinetics in SD rats; assay type: in vivo; conditions: male, Sprague-Dawley, rat, plasma; for half-life / clearance: intravenous injection 2 mg/kg; for clearance: iv, 2 mg/kg, read-out: Plasma clearance rate
From the text: Experimental Embodiment 6: Evaluation on the Pharmacokinetic of the Compounds in Rats
SD male rats were selected as the test animals in this study, and the drug concentration in plasma of the rats at different time points via intravenous injection or oral gastric administration of the test compound was quantitatively measured using LC/MS/MS method to evaluate the pharmacokinetic characteristics of the test compounds in rats.
Sprague Dawley (SD) rats (male, 200-300 g, 7-10 weeks old, Beijing Viton Lihua or Shanghai Slake).
A clear solution of the test compound was injected into SD rats via the tail vein (overnight fasting), or administrated orally by gavage (overnight fasting). For intravenous administration, 200 μL of jugular blood was collected via vein puncture at 0 hour (pre-dosing) and at 0.0833, 0.25, 0.5, 1, 2, 4, 6, 8 and 24 hours after dosing, which was then placed in an anticoagulation tube supplemented with EDTA-K2 (Suzuki Healthcare Medical Co., Ltd.). The mixture in the anticoagulation tube was vortexed to mix thoroughly at 4° C., and then centrifuged at 13000 rpm for 10 minutes to collect the plasma. For oral gavage administration, 200 μL of jugular blood was collected via vein puncture at 0 hour (pre-dosing) and at 0.5, 1, 2, 4, 6, 8 and 24 hours after dosing, which was then placed in an anticoagulation tube supplemented with EDTA-K2 (Suzuki Healthcare Medical Co., Ltd.). The mixture in the anticoagulation tube was vortexed to mix thoroughly, and then centrifuged at 13000 rpm for 10 minutes to collect the plasma. Plasma drug concentration was measured by LC/MS/MS method, and related pharmacokinetic parameters were calculated using WinNonlin™ Version 6.3 (Pharsight, Paul View, Calif.) pharmacokinetics software in non-room model linear logarithmic trapezoids method.

[3] = male, dog, plasma, intravenous injection 1 mg/kg

The area under the plasma concentration time curve ([1]; intravenous injection 1 mg/kg)	bioavailability ([1]; male, beagle, dog, plasma, po, 3 mg/kg, oral administration 3 mg/kg, read-out: Bioavailability F)	half-life [1, 3]	Peak concentration ([1]; oral administration 3 mg/kg)	Peak time ([1]; oral administration 3 mg/kg)	The area under the plasma concentration time curve ([1]; oral administration 3 mg/kg)	Bioavailability F ([1]; oral administration 3 mg/kg, 3 mg/kg)	IC50 (human ETA receptor)	ETA/ETB selectivity (human ETA receptor)	half-life [2]	clearance [2]	Plasma clearance rate ([1]; intravenous injection 1 mg/kg, 1 mg/kg)	clearance ([1]; male, beagle, dog, plasma, iv, 1 mg/kg, intravenous injection 1 mg/kg, read-out: Plasma clearance rate)	bioavailability ([2]; po, 10 mg/kg, oral administration 10 mg/kg)	SMILES
46.94 µM·h	> 50%	139 min	16.20 µM	0.38 h	73.77 µM·h	52.4%	2.8 nM	30300	75.6 min	< 5 mL/min/kg	–	–	–	NS(=O)(=O)Nc1ncnc(OCCOc2ncc(Br)cn2)c1-c1ccc2c(c1)OCO2 [WX001]
7.56 µM·h	–	51.6 min	12.75 µM	0.38 h	33.40 µM·h	–	1.4 nM	47100	68.4 min	< 5 mL/min/kg	4.79 mL/min/kg	< 5 mL/min/kg	> 70%	COCCNS(=O)(=O)Nc1ncnc(OCCOc2ncc(Br)cn2)c1-c1ccc2c(c1)OCO2 [WX013]

Reference: patent publication US11319305B2, “Pyrimidine sulfamide derivative and preparation method and medical application thereof” (SHIJIAZHUANG SAGACITY NEW DRUG DEVELOPMENT CO., LTD., priority 2017, dated 2022)
